Assay results reported in PubChem BioAssay (NCI).
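How tested: cells in 96-well plates exposed to compound for 48 hours at five concentrations. GI50 is the concentration that inhibits growth by half. At the TGI there is no net growth.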

Columns and labels:
Assay in all cases: DTP human tumour cell line panel, 48 h
[1] = test system: DU-145 prostate
[2] = test system: SR leukemia
[3] = test system: SW-620 colon
[4] = test system: CCRF-CEM leukemia
[5] = test system: HCC-2998 colon
[6] = test system: HS 578T breast
[7] = test system: NCI-H226 lung
[8] = test system: SF-268 CNS
[9] = test system: SK-MEL-5 melanoma
[10] = test system: SK-MEL-2 melanoma

Row | SMILES | GI50 [1] | TGI [1] | GI50 [2] | TGI [2] | GI50 [3] | TGI [3] | TGI [4] | TGI [5] | TGI [6] | TGI [7] | TGI [8] | TGI [9] | TGI [10] | GI50 [4] | GI50 [5] | GI50 [6] | GI50 [7] | GI50 [8] | GI50 [10] | GI50 [9]
1 | NCCCCCCNc1cc(-c2cccc(OC(F)(F)F)c2)nc2ccc(N3CCCC3)cc12 | 1.55 µM | 2.94 µM | 0.349 µM | 1.73 µM | 1.48 µM | 3.02 µM | – | – | – | – | – | – | – | – | – | – | – | – | – | –
2 | CCCCCCCCCC[C@@H](O)[C@@H]1CC[C@@H]([C@@H]2CC[C@@H]([C@@H](O)CCCCCCCCCCC(O)CC3=CC(C)OC3=O)O2)O1 (some centres not stated) | – | > 10 µM | – | 6.45 µM | – | > 10 µM | > 10 µM | > 10 µM | > 10 µM | 6.84 µM | > 10 µM | 2.92 µM | – | – | – | – | – | – | – | –
3 | O=C(O)C(Cc1cccs1)C(=O)O | – | > 100 µM | – | > 100 µM | – | > 100 µM | > 100 µM | > 100 µM | > 100 µM | > 100 µM | > 100 µM | > 100 µM | > 100 µM | – | – | – | – | – | – | –
4 | COc1ccc(-c2cn3ccnc3c(-c3ccc4ncn(C5CCCCC5)c4c3)n2)cc1 | 1.07 µM | > 100 µM | 0.89 µM | > 100 µM | 0.734 µM | > 100 µM | > 100 µM | > 100 µM | 49.3 µM | > 100 µM | > 100 µM | 3.2 µM | > 100 µM | 1.64 µM | 2.92 µM | 1.16 µM | 2.97 µM | 2.38 µM | 0.944 µM | 0.698 µM
5 | CC(NCCS(=O)(=O)O)C(=O)O (configuration not stated) | – | – | – | – | – | > 100 µM | > 100 µM | > 100 µM | – | > 100 µM | > 100 µM | > 100 µM | > 100 µM | – | – | – | – | – | – | –
